One assay relates to db/db mice. The assay is described as follows: Study for glucose lowering effect in db/db mouse. The note with it: Mus musculus, po, 0.3 mg/kg administration, 6 hours, read-out: reduction of blood glucose 6 hours after administration. The format is in vivo. The method, then: Study for Glucose Lowering Effect in dB/dB Mouse
A study for glucose lowering effect was conducted using db/db mice (purchased from Clea Japan, Inc., male, 9 to 11 weeks old), type 2 diabetic model mice. On the day of the study, body weights and blood glucose levels were measured prior to the start of testing. Measurement of the blood glucose levels was performed using a simple blood glucose meter (manufactured by Bayer HealthCare, Dexter-Z II). The mice were allocated to some groups consisting of 5 mice each so that homogeneity of body weights or blood glucose levels among groups would be ensured. Blood collection was carried out by making an incision on the tip of the tail and taking the blood therefrom. On the day of the study, the test compounds were suspended in 0.5% carboxymethylcellulose solution (CMC solution), and the dosing solutions of which concentration was adjusted to either 0.3 mg/10 mL or 3 mg/10 mL were prepared. The dosing solutions were orally administered by gavage for mice in 10 mL/kg. To the control group, only a 0.5% CMC solution was orally administered in 10 mL/kg. Blood was collected prior to or sequentially after administration of test compounds by above method. The blood glucose levels were determined using a hexokinase method (AutoSera S GLU, manufactured by Daiichi Pure Chemicals Co., Ltd.). A percent reduction of blood glucose relative to control group at each time point after administration of test compounds was calculated by the following equation.
Percent reduction of blood glucose (%)={blood glucose level in the control group (mg/dL)-blood glucose level in the test compound group (mg/dL)}/blood glucose level in the control group (mg/dL)×100

The target of a further assay is T1, human SGLT2 (Homo sapiens, UniProt P31639).
T1 construct: expressed in transfected cells; host or cells: CHO-K1
T1 sequence (P31639 1-672): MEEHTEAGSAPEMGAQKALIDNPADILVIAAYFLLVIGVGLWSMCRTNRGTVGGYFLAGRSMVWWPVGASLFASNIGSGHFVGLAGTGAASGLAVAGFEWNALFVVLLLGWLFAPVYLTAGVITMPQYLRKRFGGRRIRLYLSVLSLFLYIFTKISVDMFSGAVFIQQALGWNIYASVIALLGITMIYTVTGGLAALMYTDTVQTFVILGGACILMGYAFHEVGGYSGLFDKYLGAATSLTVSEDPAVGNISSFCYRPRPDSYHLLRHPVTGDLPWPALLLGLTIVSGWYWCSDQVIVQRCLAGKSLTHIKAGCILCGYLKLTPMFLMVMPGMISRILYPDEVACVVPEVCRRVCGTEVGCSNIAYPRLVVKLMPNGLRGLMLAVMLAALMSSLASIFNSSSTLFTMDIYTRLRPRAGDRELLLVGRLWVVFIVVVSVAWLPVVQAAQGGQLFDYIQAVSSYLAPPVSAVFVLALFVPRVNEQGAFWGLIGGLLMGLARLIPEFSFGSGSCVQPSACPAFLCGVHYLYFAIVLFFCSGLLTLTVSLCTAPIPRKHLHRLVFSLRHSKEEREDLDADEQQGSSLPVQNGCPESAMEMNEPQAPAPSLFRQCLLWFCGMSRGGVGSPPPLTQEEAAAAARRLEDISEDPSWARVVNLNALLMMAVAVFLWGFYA
In words: Inhibitory activity against methyl-α-D-glucopyranoside uptake, CHO cells stably expressing human SGLT2. It counts as cell-based. The note with it: inhibition of SGLT2, Table 2-1; read-out: IC50 value. The text has this:
Evaluation of inhibitory activity against methyl-α-D-glucopyranoside uptake of human Na^+-glucose cotransporter (SGLT1 and SGLT2)
2) Construction of Human SGLT2 Expression Vector
Human SGLT2 cDNA was amplified by PCR with a cDNA library derived from human kidney (Clontech) as a template, synthetic DNA primers and KOD+ DNA Polymerase. The amplified cDNA was inserted into pcRII-Topo vector by using a Topo TA Cloning Dual Promoter kit. E. coli competent cells (TPO10) were transformed with the plasmid vector, cultured in LB medium containing ampicillin (50 mg/L) to grow ampicillin-resistant clones. The plasmid vector containing human SGLT2 cDNA was purified from the clone in a standard manner. Human SGLT2 cDNA added restriction enzyme recognition sites (Xho I at 5′-end, Hind III at 3′-end) was amplified by PCR with the plasmid vector as a template, synthetic DNA primers containing an additional restriction enzyme recognition site and KOD+ DNA Polymerase. This amplified cDNA was digested with Xho I and Hind III, and ligated into expression vector pcDNA3.1(−) digested with Xho I and Hind III by using a Rapid DNA Ligation kit. E. coli competent cells (DH5α) were transformed with the ligated expression vector and grown in ampicillin-containing LB medium. Human SGLT2 expression vector was purified from the ampicillin-resistant clone in a standard manner.
3) Establishment of Cell Lines Stably Expressing Human SGLT1 or Human SGLT2
The human SGLT1 expression vector or the human SGLT2 expression vector was digested with the restriction enzyme Pvu I and transfected into CHO-Kl cells with FuGENE (Roche Diagonostics). After the transfection, the cells were cultured at 37° C. in the presence of 5% CO2 for about 3 weeks in DMEM medium (Gibco) containing penicillin (50 U/mL, SIGMA), streptomycin (50 mg/L, SIGMA), geneticin (200 mg/L, Nacalai Tesque, Inc., Japan) and 20% fetal bovine serum to obtain geneticin-resistant clones. Among these clones, clones stably expressing human SGLT1 or human SGLT2 were selected by the evaluating the sodium-dependent uptake activity of sugar (methyl-α-D-glucopyranoside).
4) Evaluation of Inhibitory Activity Against methyl-α-D-glucopyranoside uptake
Cell lines stably expressing human SGLT1 or human SGLT2 CHO were seeded in 96-well culture plates at a density of 30000 to 40000 cells/well and cultured for 4 to 6 days. The medium in these plates was removed and replaced by 150 μL/well pretreatment buffer (i.e., a buffer containing 140 mM choline chloride, 2 mM potassium chloride, 1 mM calcium chloride, 1 mM magnesium chloride, 10 mM 2-[4-(2-hydroxyethyl)-1-piperazinyl]ethanesulfonic acid and tris(hydroxymethyl)aminomethane, pH 7.4), and the plates were incubated at 37° C. for 20 minutes. The pretreatment buffer in the plates was removed, replaced by 50 μL/well fresh pretreatment buffer, and the plates were incubated at 37° C. for 20 minutes. Methyl-α-D-(U—^14C)glucopyranoside (6.3 mL, Amersham Pharmacia Biotech, 200 mCi/L) was added to and mixed with 100 mL buffer (i.e., a buffer containing 140 mM sodium chloride, 2 mM potassium chloride, 1 mM calcium chloride, 1 mM magnesium chloride, 1 mM methyl-α-D-glucopyranoside, 10 mM [4-(2-hydroxyethyl)-1-piperazinyl]ethanesulfonic acid and tris(hydroxymethyl)aminomethane, pH 7.4), which was used as uptake buffer. Test compounds were dissolved into uptake buffer and these test compound solutions were used for evaluating inhibitory activity. Uptake buffer without a test compound was used as a control solution. Moreover, for use in measuring baseline uptake in the absence of sodium, sodium-free solution was prepared in the same manner to contain 140 mM choline chloride instead of sodium chloride. The pretreatment buffer was removed from each well of the plates and replaced by 35 μL/well test compound solutions, control solution or sodium-free solution, and the plates were incubated at 37° C. for 45 minutes. […]

On to `OC[C@H]1O[C@]2(OCc3cc(Cl)c(Cc4cccs4)cc32)[C@H](O)[C@@H](O)[C@@H]1O` [Example 30, (1S,3′R,4′S,5′S,6′R)-5-chloro-3′,4′,5′,6′-tetrahydro-6′-(hydroxymethyl)-6-[(thiophen-2-yl)methyl]-spiro[isobenzofuran-1(3H),2′-[2H]pyran]-3′,4′,5′-triol], for which the inhibition in vivo at 0.3 mg/kg in the assay with db/db mice was no less than 25%. In addition, at human SGLT2, the IC50 stood at 1.3 nM.

As to `C#Cc1cc2c(cc1Cc1ccc(CC)cc1)[C@]1(OC2)O[C@H](CO)[C@@H](O)[C@H](O)[C@H]1O` [Example 31, (1S,3′R,4′S,5′S,6′R)-6-[(4-ethylphenyl)methyl]-5-ethynyl-3′,4′,5′,6′-tetrahydro-6′-(hydroxymethyl)-spiro[isobenzofuran-1(3H),2′-[2H]pyran]-3′,4′,5′-triol], the inhibition in vivo at 0.3 mg/kg in the assay with db/db mice is no less than 25%. Besides, at human SGLT2, the IC50 worked out at 2.1 nM.

The values are drawn from patent publication US20110275703A1, “SUBSTITUTED SPIROKETAL DERIVATIVES AND USE THEREOF AS THERAPEUTIC DRUG FOR DIABETES” (CHUGAI SEIYAKU KABUSHIKI KAISHA, priority 2007, published 2011).
